Assay: Concentration of lactic acid fermentation culture medium with reverse osmosis membrane at 50° C. until calcium lactate precipitates
Conditions: no calcium formate added
Description: While the recovered concentrate was incubated at 50° C., the concentrate was filtered by suction filtration through Qualitative Filter Paper No. 2 (manufactured by [sequence]) to remove the precipitated calcium lactate crystals.

SMILES: CC(O)C(=O)[O-].CC(O)C(=O)[O-].[Ca+2] (stereo not drawn) [calcium lactate]
- concentration of calcium lactate at which precipitation was found (D-lactic acid fermentation medium (SL strain)): 12.5 % by weight
- concentration of calcium lactate at which precipitation was found (L-lactic acid fermentation medium (LC strain)): 12.8 % by weight
- concentration of calcium lactate at which precipitation was found (L-lactic acid fermentation medium (yeast HI003 strain)): 12.0 % by weight
